Assay results from patent publication US20240409573A1, “CALICHEAMICIN DERIVATIVES AND ANTIBODY DRUG CONJUGATES THEREOF” (priority 2017, published 2024).

What was measured:
[1] = system: HEL92.1.7 cells, CD33-target expressing; assay: In vitro cell assay, cell viability by MTS, HEL92.1.7; type: cell-based; details: Homo sapiens, HEL 92.1.7, 96 h, read-out: Average IC50, HEL92.1.7
Description: (§1) Her2-Target expressing (BT474 (breast cancer), N87 (gastric cancer), MDA-MB-361-DYT2 (breast cancer)) or Her2-non-expressing (MDA-MB-468, HT29) cells, or 0033-target expressing HL60, HEL92.1.7, NB4, TF-1 or 0033-non-expressing (Raji) cells were seeded in 96-well cell culture plates for 24 hours before treatment. Cells were treated with 3-fold serially diluted antibody-drug conjugates or free compounds (i.e., no antibody conjugated to the drug) in duplicate at 10 concentrations. Cell viability was determined by CellTiter 96® AQueous One Solution Cell Proliferation MTS Assay (Promega, Madison WI) 96 hours after treatment. Relative cell viability was determined as percentage of untreated control. IC50 values were calculated using a four parameter logistic model #203 with XLfit v4.2 (IDBS, Guildford, Surry, UK). Results are shown below in Table 3 (for payloads), Table 4 (for Herceptin conjugates), and Table 5 (for CD33 conjugates).

[2] = system: N87 (gastric cancer) cells, Her2-target expressing; assay: In vitro cell assay, cell viability by MTS, N87; type: cell-based; details: 96 h, read-out: Average IC50, N87
Description: as §1

[3] = system: NB4 cells, CD33-target expressing; assay: In vitro cell assay, cell viability by MTS, NB4; type: cell-based; details: Homo sapiens, NB-4, 96 h, read-out: Average IC50, NB4
Description: as §1

[4] = system: HL60 cells, CD33-target expressing; assay: In vitro cell assay, cell viability by MTS, HL60; type: cell-based; details: Homo sapiens, HL-60, 96 h, read-out: Average IC50, HL-60
Description: as §1

[5] = system: Raji cells, CD33-non-expressing; assay: In vitro cell assay, cell viability by MTS, Raji; type: cell-based; details: Homo sapiens, 96 h, read-out: Average IC50, Raji
Description: as §1

[6] = system: MDA-MB-361-DYT2 (breast cancer) cells, Her2-target expressing; assay: In vitro cell assay, cell viability by MTS, MDA-MB-361-DYT2; type: cell-based; details: 96 h, read-out: Average IC50, MDA-MB-361-DYT2
Description: as §1

[7] = system: TF-1 cells, CD33-target expressing; assay: In vitro cell assay, cell viability by MTS, TF-1; type: cell-based; details: Homo sapiens, TF-1, 96 h, read-out: Average IC50, TF-1
Description: as §1

[8] = system: HT29 cells, Her2-non-expressing; assay: In vitro cell assay, cell viability by MTS, HT29; type: cell-based; details: Homo sapiens, HT-29, 96 h, read-out: Average IC50, HT29
Description: as §1

[9] = system: TF-1 AML xenograft tumors; assay: TF-1 AML subcutaneous xenograft model; type: in vivo, female Athymic nu/nu mice; details: Mylotarg dosed at 1 mg/kg Q4dx4 intravenously
Description: The cyno-human chimeric anti 0033 antibody, 11A1, was conjugated to various linker-payloads (as per 0033 conjugates in Examples 50-110) and tested in Acute Myeloid Leukemia (AML) xenograft models. For each model described below the first dose was given on Day 0. The tumors were measured at least once a week and their volume was calculated with the formula: tumor volume (mm^3)=0.5×(tumor width^2)(tumor length). The mean tumor volumes (±S.E.M.) for each treatment group were calculated having a maximum of 10 animals and a minimum of 4 animals to be included. All animal experiments were conducted in a facility accredited by the Association for Assessment of Laboratory Animal Care under Institutional Animal Care and Use Committee guidelines and appropriate animal research approval.
The effects of anti-CD33 ADCs were examined in immunodeficient mice on the in vivo growth of human tumors. For subcutaneous (sc) AML models, 10×10^6 TF-1 cells were implanted subcutaneously in the flank of female Athymic nu/nu mice. When the tumors reached an average volume of 300 mm^3, animals were staged to ensure uniformity of the tumor size among various treatment groups. The TF-1 AML sc xenograft model was dosed intravenously one time every four days for four cycles (Q4dx4) with PBS vehicle or humanized anti-CD33 […] at the doses provided in Tables 11-13.

Molecule | IC50 [1] | IC50 [2] | IC50 [3] | IC50 [4] | IC50 [5] | IC50 [6] | IC50 [7] | IC50 [8] | efficacy in TF-1 AML xenografts [9]
CCN[C@H]1CO[C@@H](O[C@H]2[C@H](O[C@H]3C#C/C=C\C#C[C@]4(O)CC(=O)C(NC(=O)OC)=C3/C4=C\CSSc3ccccc3)O[C@H](C)[C@@H](NO[C@H]3C[C@H](O)[C@H](SC(=O)c4c(C)c(I)c(O[C@@H]5O[C@@H](C)[C@H](O)[C@@H](OC)[C@H]5O)c(OC)c4OC)[C@@H](C)O3)[C@@H]2O)C[C@@H]1OC [Example P10] | 0.004 nM | 0.031 nM | 0.003 nM | 0.004 nM | 0.005 nM | 0.025 nM | 0.029 nM | 0.03 nM | 
CCN[C@H]1CO[C@@H](O[C@H]2[C@H](O[C@H]3C#C/C=C\C#C[C@]4(O)CC(=O)C(NC(=O)OC)=C3/C4=C\CSSC(C)C(=O)OCC)O[C@H](C)[C@@H](NO[C@H]3C[C@H](O)[C@H](SC(=O)c4c(C)c(I)c(O[C@@H]5O[C@@H](C)[C@H](O)[C@@H](OC)[C@H]5O)c(OC)c4OC)[C@@H](C)O3)[C@@H]2O)C[C@@H]1OC (stereo partly shown) [Example P11] | 0.003 nM | 0.007 nM | 0.001 nM | 0.002 nM | 0.002 nM | 0.008 nM | 0.03 nM | 0.006 nM | 
CCN[C@H]1CO[C@@H](O[C@H]2[C@H](O[C@H]3C#C/C=C\C#C[C@]4(O)CC(=O)C(NC(=O)OC)=C3/C4=C\CSSC(C)(C)C(=O)O)O[C@H](C)[C@@H](NO[C@H]3C[C@H](O)[C@H](SC(=O)c4c(C)c(I)c(O[C@@H]5O[C@@H](C)[C@H](O)[C@@H](OC)[C@H]5O)c(OC)c4OC)[C@@H](C)O3)[C@@H]2O)C[C@@H]1OC [Example P12] | 0.102 nM | 0.64 nM | 0.005 nM | 0.04 nM | 0.033 nM | 4.16 nM | 0.245 nM | 0.687 nM | 
CCN[C@H]1CO[C@@H](O[C@H]2[C@H](O[C@H]3C#C/C=C\C#C[C@]4(O)CC(=O)C(NC(=O)OC)=C3/C4=C\CSSc3ccc(C(=O)O)cc3)O[C@H](C)[C@@H](NO[C@H]3C[C@H](O)[C@H](SC(=O)c4c(C)c(I)c(O[C@@H]5O[C@@H](C)[C@H](O)[C@@H](OC)[C@H]5O)c(OC)c4OC)[C@@H](C)O3)[C@@H]2O)C[C@@H]1OC [Example P13] | 0.039 nM | 0.536 nM | 0.023 nM | 0.044 nM | 0.022 nM | 0.982 nM | 0.331 nM | 0.792 nM | 
CCN[C@H]1CO[C@@H](O[C@H]2[C@H](O[C@H]3C#C/C=C\C#C[C@]4(O)CC(=O)C(NC(=O)OC)=C3/C4=C\CSSC3CCNCC3)O[C@H](C)[C@@H](NO[C@H]3C[C@H](O)[C@H](SC(=O)c4c(C)c(I)c(O[C@@H]5O[C@@H](C)[C@H](O)[C@@H](OC)[C@H]5O)c(OC)c4OC)[C@@H](C)O3)[C@@H]2O)C[C@@H]1OC [Example P16] | 0.071 nM | 0.023 nM | 0.015 nM | 0.024 nM | 0.077 nM | 0.045 nM | 0.15 nM | 0.035 nM | 
CCN(CC(=O)O)[C@H]1CO[C@@H](O[C@H]2[C@H](O[C@H]3C#C/C=C\C#C[C@]4(O)CC(=O)C(NC(=O)OC)=C3/C4=C\CSSC(C)C)O[C@H](C)[C@@H](NO[C@H]3C[C@H](O)[C@H](SC(=O)c4c(C)c(I)c(O[C@@H]5O[C@@H](C)[C@H](O)[C@@H](OC)[C@H]5O)c(OC)c4OC)[C@@H](C)O3)[C@@H]2O)C[C@@H]1OC [Example P50] | 3.93 nM | 1.05 nM | 0.127 nM | 0.372 nM | 0.438 nM | 7.33 nM | 17.9 nM | 0.775 nM | 
Mylotarg®: "anti-CD33 humanized monoclonal antibody conjugated to calicheamicin for the treatment of acute myelogenous leukemia" |  |  |  |  |  |  |  |  | ineffective
